ChEMBL document CHEMBL4507259 (2021)

Experiments:
[1] = tested on: Rec1; assay: REC1 cell line Proliferation assay; assay type: functional, Homo sapiens; conditions: Compound concentration 10 uM; time 3 day
[2] = tested on: NCI-H23; assay: H23 cell line Proliferation assay; assay type: functional, Homo sapiens; conditions: Compound concentration 10 uM; time 3 day
[3] = tested on: NCI-H211; assay: H211 cell line Proliferation assay; assay type: functional, Homo sapiens; conditions: Compound concentration 10 uM; time 4 day
[4] = tested on: HCC1599; assay: HCC1599 cell line Proliferation assay; assay type: functional, Homo sapiens; conditions: Compound concentration 10 uM; time 5 day
[5] = tested on: OCI-Ly3; assay: OCI Ly3 cell line Proliferation assay; assay type: functional, Homo sapiens; conditions: Compound concentration 10 uM; time 3 day
[6] = tested on: MeWo; assay: MeWo cell line Proliferation assay; assay type: functional, Homo sapiens; conditions: Compound concentration 10 uM; time 5 day
[7] = biological target: B2 bradykinin receptor (Homo sapiens) (UniProt P30411); assay: B2 (h) CEREP ligand profiling; conditions: filed as agonist, Compound concentration 10.0 uM
B2 bradykinin receptor (Homo sapiens), sequence (P30411 whole entry): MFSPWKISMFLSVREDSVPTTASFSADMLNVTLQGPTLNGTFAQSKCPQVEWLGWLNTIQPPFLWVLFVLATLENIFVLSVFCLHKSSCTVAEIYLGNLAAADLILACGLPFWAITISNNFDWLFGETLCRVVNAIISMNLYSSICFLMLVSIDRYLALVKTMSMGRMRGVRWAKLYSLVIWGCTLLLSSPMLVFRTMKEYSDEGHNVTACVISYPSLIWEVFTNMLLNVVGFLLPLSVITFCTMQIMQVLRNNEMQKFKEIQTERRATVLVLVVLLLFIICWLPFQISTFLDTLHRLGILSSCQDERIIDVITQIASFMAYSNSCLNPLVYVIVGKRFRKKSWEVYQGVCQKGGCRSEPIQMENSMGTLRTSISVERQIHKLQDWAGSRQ

[8] = tested on: G-361; assay: G361 cell line Proliferation assay; assay type: functional, Homo sapiens; conditions: Compound concentration 10 uM; time 5 day
[9] = tested on: RCK8; assay: RCK8 cell line Proliferation assay; assay type: functional, Homo sapiens; conditions: Compound concentration 10 uM; time 3 day
[10] = tested on: NCI-H187; assay: H187 cell line Proliferation assay; assay type: functional, Homo sapiens; conditions: Compound concentration 10 uM; time 4 day
[11] = tested on: HCC1806; assay: HCC1806 cell line Proliferation assay; assay type: functional, Homo sapiens; conditions: Compound concentration 10 uM; time 5 day
[12] = tested on: NCI-H1417; assay: H1417 cell line Proliferation assay; assay type: functional, Homo sapiens; conditions: Compound concentration 10 uM; time 4 day
[13] = tested on: OCI-Ly18; assay: OCI Ly18 cell line Proliferation assay; assay type: functional, Homo sapiens; conditions: Compound concentration 10 uM; time 3 day
[14] = tested on: MM1.S; assay: MM1.s cell line Proliferation assay; assay type: functional, Homo sapiens; conditions: Compound concentration 10 uM; time 3 day
[15] = tested on: NCI-H838; assay: H838 cell line Proliferation assay; assay type: functional, Homo sapiens; conditions: Compound concentration 10 uM; time 3 day
[16] = tested on: HCC4006; assay: HCC4006 cell line Proliferation assay; assay type: functional, Homo sapiens; conditions: Compound concentration 10 uM; time 3 day
[17] = tested on: JVM-2; assay: JVM-2 cell line Proliferation assay; assay type: functional, Homo sapiens; conditions: Compound concentration 10 uM; time 3 day
[18] = tested on: NCI-H727; assay: H727 cell line Proliferation assay; assay type: functional, Homo sapiens; conditions: Compound concentration 10 uM; time 3 day
[19] = biological target: Prostaglandin G/H synthase 2 (Homo sapiens) (UniProt P35354); assay: COX2(h) CEREP ligand profiling; conditions: Compound concentration 10.0 uM
[20] = tested on: MDA-MB-436; assay: MDA_MB_436 cell line Proliferation assay; assay type: functional, Homo sapiens; conditions: Compound concentration 10 uM; time 5 day
[21] = tested on: Ramos; assay: Ramos cell line Proliferation assay; assay type: functional, Homo sapiens; conditions: Compound concentration 10 uM; time 3 day
[22] = tested on: SU-DHL10; assay: SuDHL10 cell line Proliferation assay; assay type: functional, Homo sapiens; conditions: Compound concentration 10 uM; time 3 day
[23] = tested on: U2932; assay: U2932 cell line Proliferation assay; assay type: functional, Homo sapiens; conditions: Compound concentration 10 uM; time 3 day
[24] = tested on: HCC1143; assay: HCC1143 cell line Proliferation assay; assay type: functional, Homo sapiens; conditions: Compound concentration 10 uM; time 5 day
[25] = tested on: SUD4; assay: SuDHL4 cell line Proliferation assay; assay type: functional, Homo sapiens; conditions: Compound concentration 10 uM; time 3 day
[26] = biological target: 5-hydroxytryptamine receptor 7 (Homo sapiens) (UniProt P34969); conditions: Compound concentration 10.0 uM
5-hydroxytryptamine receptor 7 (Homo sapiens), sequence (P34969 whole entry): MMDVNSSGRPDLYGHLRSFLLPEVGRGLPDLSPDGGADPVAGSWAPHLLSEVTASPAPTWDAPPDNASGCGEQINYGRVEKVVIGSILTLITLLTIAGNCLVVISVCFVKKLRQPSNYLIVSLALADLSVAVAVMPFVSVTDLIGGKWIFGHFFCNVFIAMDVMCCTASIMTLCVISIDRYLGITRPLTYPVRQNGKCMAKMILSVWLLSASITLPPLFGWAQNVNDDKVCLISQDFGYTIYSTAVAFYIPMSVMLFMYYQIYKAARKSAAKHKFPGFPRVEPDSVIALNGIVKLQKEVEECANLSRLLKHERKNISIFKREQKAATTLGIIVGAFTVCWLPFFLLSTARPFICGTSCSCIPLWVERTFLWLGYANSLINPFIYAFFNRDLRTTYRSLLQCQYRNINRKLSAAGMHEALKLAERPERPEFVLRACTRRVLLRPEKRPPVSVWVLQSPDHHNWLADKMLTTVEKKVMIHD

[27] = tested on: OCI-AML2; assay: OCI-AML2 cell line Proliferation assay; assay type: functional, Homo sapiens; conditions: Compound concentration 10 uM; time 3 day
[28] = tested on: DU-145; assay: DU-145 cell line Proliferation assay; assay type: functional, Homo sapiens; conditions: Compound concentration 10 uM; time 5 day
[29] = tested on: HCC1187; assay: HCC1187 cell line Proliferation assay; assay type: functional, Homo sapiens; conditions: Compound concentration 10 uM; time 5 day
[30] = tested on: Toledo; assay: Toledo cell line Proliferation assay; assay type: functional, Homo sapiens; conditions: Compound concentration 10 uM; time 3 day
[31] = tested on: DB; assay: DB cell line Proliferation assay; assay type: functional, Homo sapiens; conditions: Compound concentration 10 uM; time 3 day
[32] = tested on: L-363; assay: L-363 cell line Proliferation assay; assay type: functional, Homo sapiens; conditions: Compound concentration 10 uM; time 3 day
[33] = tested on: U-2940; assay: U2940 cell line Proliferation assay; assay type: functional, Homo sapiens; conditions: Compound concentration 10 uM; time 3 day
[34] = tested on: Malme-3M; assay: Malme3M cell line Proliferation assay; assay type: functional, Homo sapiens; conditions: Compound concentration 10 uM; time 5 day
[35] = tested on: Jurkat; assay: Jurkat cell line Proliferation assay; assay type: functional, Homo sapiens; conditions: Compound concentration 10 uM; time 3 day
[36] = tested on: GA-10; assay: GA10 cell line Proliferation assay; assay type: functional, Homo sapiens; conditions: Compound concentration 10 uM; time 3 day
[37] = tested on: KARPAS-299; assay: KARPAS-299 cell line Proliferation assay; assay type: functional, Homo sapiens; conditions: Compound concentration 10 uM; time 3 day
[38] = tested on: OCI-AML-5; assay: OCI-AML5 cell line Proliferation assay; assay type: functional, Homo sapiens; conditions: Compound concentration 10 uM; time 3 day
[39] = tested on: 4T1; assay: 4T1 (mouse) cell line Proliferation assay; assay type: functional; conditions: Compound concentration 10 uM; time 5 day
[40] = tested on: Karpas-1106P; assay: K1106 cell line Proliferation assay; assay type: functional, Homo sapiens; conditions: Compound concentration 10 uM; time 3 day
[41] = tested on: SK-MEL-5; assay: SKMEL5 cell line Proliferation assay; assay type: functional, Homo sapiens; conditions: Compound concentration 10 uM; time 5 day
[42] = tested on: SU-DHL-5; assay: SuDHL5 cell line Proliferation assay; assay type: functional, Homo sapiens; conditions: Compound concentration 10 uM; time 3 day
[43] = tested on: NCI-H128; assay: H128 cell line Proliferation assay; assay type: functional, Homo sapiens; conditions: Compound concentration 10 uM; time 4 day
[44] = tested on: COR-L47; assay: Cor-L47 cell line Proliferation assay; assay type: functional, Homo sapiens; conditions: Compound concentration 10 uM; time 4 day
[45] = tested on: VCaP; assay: VCaP cell line Proliferation assay; assay type: functional, Homo sapiens; conditions: Compound concentration 10 uM; time 5 day
[46] = tested on: MOLM-13; assay: MOLM-13 cell line Proliferation assay; assay type: functional, Homo sapiens; conditions: Compound concentration 10 uM; time 3 day
[47] = tested on: HT; assay: HT cell line Proliferation assay; assay type: functional, Homo sapiens; conditions: Compound concentration 10 uM; time 3 day
[48] = biological target: Sodium-dependent serotonin transporter (Homo sapiens, UniProt P31645); assay: GPCRScan assay: inhibition of SERT; set-up: radioligand conc. used [nm] 1.5 – 2.0, parental cells stable HEK
Sodium-dependent serotonin transporter, sequence (P31645 whole entry): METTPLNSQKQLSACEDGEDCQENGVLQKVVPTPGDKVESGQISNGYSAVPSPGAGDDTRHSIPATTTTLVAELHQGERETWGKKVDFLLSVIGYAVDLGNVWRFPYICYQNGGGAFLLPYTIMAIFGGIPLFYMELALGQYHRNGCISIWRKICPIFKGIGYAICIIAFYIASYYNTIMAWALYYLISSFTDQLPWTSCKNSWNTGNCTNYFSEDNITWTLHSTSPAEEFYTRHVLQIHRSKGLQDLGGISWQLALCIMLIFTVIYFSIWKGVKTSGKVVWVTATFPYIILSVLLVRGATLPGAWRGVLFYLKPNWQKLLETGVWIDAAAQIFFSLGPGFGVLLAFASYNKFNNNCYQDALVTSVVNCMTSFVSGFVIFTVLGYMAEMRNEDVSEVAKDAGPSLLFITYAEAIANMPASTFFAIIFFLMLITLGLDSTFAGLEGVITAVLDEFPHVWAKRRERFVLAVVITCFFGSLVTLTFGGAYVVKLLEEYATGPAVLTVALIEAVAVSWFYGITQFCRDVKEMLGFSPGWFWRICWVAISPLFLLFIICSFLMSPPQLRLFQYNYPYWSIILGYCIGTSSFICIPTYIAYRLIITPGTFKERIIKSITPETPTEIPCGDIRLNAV

[49] = tested on: SK-MEL-2; assay: SKMEL2 cell line Proliferation assay; assay type: functional, Homo sapiens; conditions: Compound concentration 10 uM; time 5 day
[50] = tested on: NCI-H510A; assay: H510A cell line Proliferation assay; assay type: functional, Homo sapiens; conditions: Compound concentration 10 uM; time 4 day
[51] = tested on: CAL-120; assay: CAL_120 cell line Proliferation assay; assay type: functional, Homo sapiens; conditions: Compound concentration 10 uM; time 5 day
[52] = biological target: Histone acetyltransferase type B catalytic subunit (Homo sapiens) (UniProt O14929); assay: HAT1 (HAT) CEREP ligand profiling; conditions: Compound concentration 10.0 uM
[53] = tested on: NCI-H2444; assay: H2444 cell line Proliferation assay; assay type: functional, Homo sapiens; conditions: Compound concentration 10 uM; time 3 day
[54] = tested on: BT-20; assay: BT-20 cell line Proliferation assay; assay type: functional, Homo sapiens; conditions: Compound concentration 10 uM; time 5 day
[55] = biological target: Protein kinase C iota type (Homo sapiens) (UniProt P41743); conditions: Compound concentration 1000.0 nM
[56] = biological target: Activin receptor type-2A (Homo sapiens) (UniProt P27037); conditions: Compound concentration 1000.0 nM
Activin receptor type-2A (Homo sapiens), sequence (P27037 whole entry): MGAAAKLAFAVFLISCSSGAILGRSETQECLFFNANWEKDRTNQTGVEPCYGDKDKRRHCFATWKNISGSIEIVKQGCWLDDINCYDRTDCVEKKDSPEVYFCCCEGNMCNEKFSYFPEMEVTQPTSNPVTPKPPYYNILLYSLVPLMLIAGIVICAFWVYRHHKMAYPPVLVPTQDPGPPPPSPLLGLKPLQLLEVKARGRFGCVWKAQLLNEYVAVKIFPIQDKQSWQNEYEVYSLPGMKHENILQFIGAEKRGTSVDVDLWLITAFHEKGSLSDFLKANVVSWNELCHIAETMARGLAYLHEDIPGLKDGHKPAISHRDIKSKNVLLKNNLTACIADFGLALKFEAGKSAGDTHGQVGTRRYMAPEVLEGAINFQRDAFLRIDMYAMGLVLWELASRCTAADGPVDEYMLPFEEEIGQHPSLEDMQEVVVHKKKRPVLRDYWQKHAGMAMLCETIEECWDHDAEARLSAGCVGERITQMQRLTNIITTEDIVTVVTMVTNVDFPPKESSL

[57] = biological target: GABA-A receptor; alpha-1/beta-2/gamma-2 (Homo sapiens) (UniProt P14867+P47870+P18507); assay: GABAA1 (h) (alpha 1,beta 2,gamma 2) CEREP ligand profiling; assay type: protein-complex assay; conditions: filed as agonist, Compound concentration 10.0 uM
[58] = biological target: Beta-2 adrenergic receptor (Homo sapiens) (UniProt P07550); assay: beta 2 (h) CEREP ligand profiling; conditions: filed as agonist, Compound concentration 10.0 uM
[59] = biological target: Dual specificity mitogen-activated protein kinase kinase 1 (Homo sapiens) (UniProt Q02750); conditions: Compound concentration 1000.0 nM
[60] = biological target: CREB-binding protein/Histone acetyltransferase p300 (Homo sapiens, UniProt Q09472+Q92793); assay: Inhibition of H3K27Ac (LnCaP-FGC); assay type: cell-based; conditions: lncap-clone-fgc
[61] = biological target: Cyclin-dependent kinase-like 3 (Homo sapiens) (UniProt Q8IVW4); conditions: Compound concentration 1000.0 nM
Cyclin-dependent kinase-like 3 (Homo sapiens), sequence (Q8IVW4 whole entry, looked up): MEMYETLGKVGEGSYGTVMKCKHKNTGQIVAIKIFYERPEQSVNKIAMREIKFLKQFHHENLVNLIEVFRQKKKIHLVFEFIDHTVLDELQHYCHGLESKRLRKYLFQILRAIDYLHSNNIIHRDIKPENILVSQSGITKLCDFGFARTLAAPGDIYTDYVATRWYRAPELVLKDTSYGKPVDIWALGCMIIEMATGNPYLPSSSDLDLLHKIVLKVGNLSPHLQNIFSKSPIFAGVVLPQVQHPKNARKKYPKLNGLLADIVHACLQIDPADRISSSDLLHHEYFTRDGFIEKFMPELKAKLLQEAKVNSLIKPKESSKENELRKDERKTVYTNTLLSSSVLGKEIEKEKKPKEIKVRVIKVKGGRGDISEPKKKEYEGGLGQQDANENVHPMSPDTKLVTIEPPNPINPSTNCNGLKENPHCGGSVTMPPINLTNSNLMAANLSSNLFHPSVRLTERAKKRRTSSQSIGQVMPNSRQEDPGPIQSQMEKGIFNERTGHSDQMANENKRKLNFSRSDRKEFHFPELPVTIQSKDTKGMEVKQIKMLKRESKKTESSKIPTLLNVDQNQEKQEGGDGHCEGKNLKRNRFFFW

[62] = biological target: Serine/threonine-protein kinase PAK 2 (Homo sapiens) (UniProt Q13177); conditions: Compound concentration 1000.0 nM
Serine/threonine-protein kinase PAK 2 (Homo sapiens), sequence (Q13177 whole entry): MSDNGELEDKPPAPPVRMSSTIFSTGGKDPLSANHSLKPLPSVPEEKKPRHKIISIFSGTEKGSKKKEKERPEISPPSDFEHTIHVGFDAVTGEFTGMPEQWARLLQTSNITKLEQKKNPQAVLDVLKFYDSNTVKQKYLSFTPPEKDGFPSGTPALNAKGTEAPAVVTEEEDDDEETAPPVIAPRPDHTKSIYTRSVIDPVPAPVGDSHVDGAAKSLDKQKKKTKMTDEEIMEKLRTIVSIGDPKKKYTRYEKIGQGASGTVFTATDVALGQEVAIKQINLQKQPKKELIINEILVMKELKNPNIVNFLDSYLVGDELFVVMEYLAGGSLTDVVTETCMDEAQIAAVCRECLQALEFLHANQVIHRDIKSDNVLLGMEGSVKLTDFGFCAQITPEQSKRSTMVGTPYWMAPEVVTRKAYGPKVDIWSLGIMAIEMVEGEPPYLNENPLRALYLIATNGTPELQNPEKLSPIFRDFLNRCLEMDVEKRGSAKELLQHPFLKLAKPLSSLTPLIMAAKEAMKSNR

[63] = biological target: D(3) dopamine receptor (Homo sapiens, UniProt P35462); assay: GPCRScan assay: inhibition of D3; set-up: radioligand conc. used [nm] 0.5 – 1.8, parental cells HEKT
D(3) dopamine receptor, sequence (P35462 whole entry): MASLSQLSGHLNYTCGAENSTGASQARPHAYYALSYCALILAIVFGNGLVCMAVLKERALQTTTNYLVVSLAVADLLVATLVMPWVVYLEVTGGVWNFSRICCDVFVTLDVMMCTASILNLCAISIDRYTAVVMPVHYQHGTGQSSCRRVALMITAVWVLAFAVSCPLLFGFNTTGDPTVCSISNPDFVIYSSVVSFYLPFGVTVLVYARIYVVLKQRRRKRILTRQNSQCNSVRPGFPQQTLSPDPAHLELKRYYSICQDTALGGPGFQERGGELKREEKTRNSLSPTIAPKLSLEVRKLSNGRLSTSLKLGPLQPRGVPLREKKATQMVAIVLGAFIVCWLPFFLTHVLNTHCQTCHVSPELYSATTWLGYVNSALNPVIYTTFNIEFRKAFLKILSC

[64] = biological target: Neuropeptide Y receptor type 1 (Homo sapiens) (UniProt P25929); assay: Y1 (h) CEREP ligand profiling; conditions: filed as agonist, Compound concentration 10.0 uM
[65] = biological target: Cyclin-dependent kinase 15 (Homo sapiens) (UniProt Q96Q40); conditions: Compound concentration 1000.0 nM
[66] = tested on: Receptor-type tyrosine-protein kinase FLT3 (Homo sapiens), P36888 [UNDEFINED MUTATION]; conditions: Compound concentration 1000.0 nM
Receptor-type tyrosine-protein kinase FLT3 (Homo sapiens), P36888 [UNDEFINED MUTATION], sequence (P36888 whole entry, looked up, change not shown): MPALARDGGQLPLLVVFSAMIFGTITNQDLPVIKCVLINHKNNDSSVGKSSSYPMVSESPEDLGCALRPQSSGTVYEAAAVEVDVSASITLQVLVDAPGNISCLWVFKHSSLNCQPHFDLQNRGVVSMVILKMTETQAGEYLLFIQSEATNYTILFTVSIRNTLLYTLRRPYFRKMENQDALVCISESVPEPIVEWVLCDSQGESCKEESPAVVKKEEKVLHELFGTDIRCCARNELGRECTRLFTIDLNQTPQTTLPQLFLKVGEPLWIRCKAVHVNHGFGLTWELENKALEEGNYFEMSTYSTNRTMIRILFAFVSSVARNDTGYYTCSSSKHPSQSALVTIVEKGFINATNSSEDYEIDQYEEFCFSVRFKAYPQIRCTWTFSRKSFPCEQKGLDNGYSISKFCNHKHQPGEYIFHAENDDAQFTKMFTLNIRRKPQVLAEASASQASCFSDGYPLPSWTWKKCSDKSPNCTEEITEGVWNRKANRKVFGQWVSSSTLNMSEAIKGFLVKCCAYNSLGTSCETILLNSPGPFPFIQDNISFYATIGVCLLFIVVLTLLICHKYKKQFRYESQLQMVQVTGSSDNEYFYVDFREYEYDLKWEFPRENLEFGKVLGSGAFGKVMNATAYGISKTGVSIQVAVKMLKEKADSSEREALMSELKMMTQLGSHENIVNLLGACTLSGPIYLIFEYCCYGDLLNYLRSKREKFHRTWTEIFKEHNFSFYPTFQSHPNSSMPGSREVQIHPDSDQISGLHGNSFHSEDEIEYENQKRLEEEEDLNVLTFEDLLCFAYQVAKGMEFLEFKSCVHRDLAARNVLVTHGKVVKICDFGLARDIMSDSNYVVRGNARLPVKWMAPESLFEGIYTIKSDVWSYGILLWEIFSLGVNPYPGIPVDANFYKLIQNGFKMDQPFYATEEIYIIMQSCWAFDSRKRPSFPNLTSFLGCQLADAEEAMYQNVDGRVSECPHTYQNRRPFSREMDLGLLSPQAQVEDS

[67] = biological target: Mitogen-activated protein kinase 11 (Homo sapiens) (UniProt Q15759); conditions: Compound concentration 1000.0 nM
Mitogen-activated protein kinase 11 (Homo sapiens), sequence (Q15759 whole entry): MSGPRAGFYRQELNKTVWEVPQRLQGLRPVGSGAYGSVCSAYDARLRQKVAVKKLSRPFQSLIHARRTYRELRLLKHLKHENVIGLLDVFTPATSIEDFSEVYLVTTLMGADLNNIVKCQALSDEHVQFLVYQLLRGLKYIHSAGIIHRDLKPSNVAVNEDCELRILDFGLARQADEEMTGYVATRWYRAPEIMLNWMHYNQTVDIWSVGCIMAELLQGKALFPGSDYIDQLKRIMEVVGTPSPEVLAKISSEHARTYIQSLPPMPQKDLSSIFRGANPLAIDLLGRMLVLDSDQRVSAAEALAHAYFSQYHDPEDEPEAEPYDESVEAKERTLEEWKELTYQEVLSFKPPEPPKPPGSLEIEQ

## CNC(=O)Nc1ccc2c(c1)CC[C@@]21OC(=O)N(CC(=O)N(Cc2ccc(F)cc2)[C@@H](C)C(F)(F)F)C1=O [A-485]
[1]
  Cell Proliferation EC50: >10000 nM
[2]
  Cell Proliferation EC50: 1791 nM
[3]
  Cell Proliferation EC50: 1500 nM
[4]
  Cell Proliferation EC50: 4852.9 nM
[5]
  Cell Proliferation EC50: 489.2 nM
[6]
  Cell Proliferation EC50: 2427 nM
[7]
  inhibition: 0%
[8]
  Cell Proliferation EC50: 3768 nM
[9]
  Cell Proliferation EC50: 589.3 nM
[10]
  Cell Proliferation EC50: >10000 nM
[11]
  Cell Proliferation EC50: 2951.2 nM
[12]
  Cell Proliferation EC50: >10000 nM
[13]
  Cell Proliferation EC50: 321.3 nM
[14]
  Cell Proliferation EC50: 181 nM
[15]
  Cell Proliferation EC50: 6990 nM
[16]
  Cell Proliferation EC50: 4640 nM
[17]
  Cell Proliferation EC50: >10000 nM
[18]
  Cell Proliferation EC50: 6632 nM
[19]
  inhibition: 11%
[20]
  Cell Proliferation EC50: >10000 nM
[21]
  Cell Proliferation EC50: 934 nM
[22]
  Cell Proliferation EC50: 916.9 nM
[23]
  Cell Proliferation EC50: 2460 nM
[24]
  Cell Proliferation EC50: >10000 nM
[25]
  Cell Proliferation EC50: 720.4 nM
[26]
  inhibition: 7.83%
[27]
  Cell Proliferation EC50: 2030 nM
[28]
  Cell Proliferation EC50: >10000 nM
[29]
  Cell Proliferation EC50: >10000 nM
[30]
  Cell Proliferation EC50: 487.5 nM
[31]
  Cell Proliferation EC50: 772.7 nM
[32]
  Cell Proliferation EC50: 509 nM
[33]
  Cell Proliferation EC50: 1332 nM
[34]
  Cell Proliferation EC50: 2687 nM
[35]
  Cell Proliferation EC50: 4030 nM
[36]
  Cell Proliferation EC50: 1059 nM
[37]
  Cell Proliferation EC50: >10000 nM
[38]
  Cell Proliferation EC50: 4860 nM
[39]
  Cell Proliferation EC50: >10000 nM
[40]
  Cell Proliferation EC50: 405.1 nM
[41]
  Cell Proliferation EC50: 907 nM
[42]
  Cell Proliferation EC50: 760.6 nM
[43]
  Cell Proliferation EC50: >10000 nM
[44]
  Cell Proliferation EC50: >10000 nM
[45]
  Cell Proliferation EC50: 40 nM
[46]
  Cell Proliferation EC50: 350 nM
[47]
  Cell Proliferation EC50: >10000 nM
[48]; read-out: Ki
  Ki: 223 nM
[48]; read-out: pKi (converted)
  Ki: 219 nM
[49]
  Cell Proliferation EC50: >10000 nM
[50]
  Cell Proliferation EC50: >10000 nM
[51]
  Cell Proliferation EC50: >10000 nM
[52]
  inhibition: -1.9%
[53]
  Cell Proliferation EC50: 5918 nM
[54]
  Cell Proliferation EC50: 336.5 nM

## CNC(=O)Nc1ccc2c(c1)[C@@]1(CC2)OC(=O)N(CC(=O)N(Cc2ccc(F)cc2)[C@@H](C)C(F)(F)F)C1=O [A-486]
[55]
  residual activity: 91%
[56]
  residual activity: 100%
[57]
  inhibition: 0%
[58]
  inhibition: 1%
[59]
  residual activity: 98%
[60]
  IC50: > 10000 nM
[61]
  residual activity: 92%
[62]
  residual activity: 94%
[63]; read-out: Ki
  Ki: 1140 nM
[63]; read-out: pKi (converted)
  Ki: 1100 nM
[64]
  inhibition: -10%
[65]
  residual activity: 100%
[66]
  residual activity: 99%
[67]
  residual activity: 100%
